Laboratory results from patent US20080312326A1, “Method for the Prevention and/or Treatment of Neurodegenerative Diseases Characterized by Administering and Ep1 Receptor Antagonist” (THE JOHN HOPKINS UNIVERSITY, priority 2005, published 2008).

Tests used:
[1] = test system: NMDA-induced brain lesion in C57BL/6 mice; test: NMDA-induced brain lesion after ICV pretreatment, wildtype mice; type: in vivo; details: for brain lesion volume (NMDA-induced): lesion at 48 h, vs NMDA-lesion and vehicle-NMDA groups
Description: (§1) Following protocols approved by the Institutional Animal Care and Use Committee of Johns Hopkins University, adult male C57BL/6 mice (Charles River, Wilmington, Mass.) and EP1^−/−, weighing 20-25 g were used in this study.
Weight and rectal temperature of each mouse was recorded before the surgical procedure. The mouse was subjected to intracerebroventricular (ICV) injection of vehicle or freshly prepared compound A or compound B followed by unilateral intrastriatal injection of NMDA, prepared in phosphate buffer saline (pH˜7.2) (J. Neurosci. 1997, 17, 6908-6917). In brief, each mouse was anesthetized, maintained at 1.0% halothane, and mounted on a stereotaxic frame (Stoelting Co., Wood Dale, Ill.). Varying body-weight (BW) doses of compound A (0.1 nmol/kg BW, n=8; 1 nmol/kg BW, n=12; 10 nmol/kg BW, n=8) or compound B (0.1 nmol/kg BW, n=8; 1 nmol/kg BW, n=12; 10 nmol/kg BW, n=9) were injected into the right lateral ventricle (stereotaxic coordinates PA-0.5 mm, lateral-1.0 mm from bregma, and ventral-2.5 mm relative to dura) over 30 sec, with the help of 1-μL Hamilton® syringe, and the needle was left in place for an additional 2 min. Twenty minutes later, 0.3 μl of 50 mM NMDA was injected into the right striatum over 2 min and the needle was left in place for additional 5 min. The NMDA-lesion control group (n=12) received 0.3 μL NMDA, and the vehicle-NMDA control group (n=11) received 0.2 μL vehicle ICV, followed by 0.3 μL NMDA in the striatum. Sham control and vehicle control groups were treated similarly with saline. After injections, mice were placed in a thermoregulated chamber maintained at 31° C. and returned to their cages after full recovery from anesthesia. Throughout the experimental procedure, rectal temperature of mice was monitored and maintained at 37.0±0.5° C.
(§2) At 48 h […], weight and rectal temperature were recorded and brains were harvested and immediately frozen in 2-methyl butane (pre-cooled over dry ice). Brain sections were cut on a cryostat and stained with cresyl violet to estimate lesion volume. Images of the brain sections were taken and analyzed with the help of SigmaScan Pro 5.0 (Systat, Inc., Point Richmond, Calif.).
Data were analyzed using SigmaStat 2.0 (Systat), and significance level was set at p<0.05. Statistical analysis was performed by Student's t-test. All data are reported as means±s.d.

[2] = test system: NMDA-induced toxicity in EP1−/− mice; test: NMDA-induced brain lesion after ICV treatment, EP1−/− mice; type: in vivo; details: ICV treatment of EP1−/− mice, compared to the untreated EP1−/− group
Description: as §1
Weight and rectal temperature of each mouse was recorded before the surgical procedure. The mouse was subjected to intracerebroventricular (ICV) injection of vehicle or freshly prepared compound A or compound B followed by unilateral intrastriatal injection of NMDA, prepared in phosphate buffer saline (pH˜7.2) (J. Neurosci. 1997, 17, 6908-6917). In brief, each mouse was anesthetized, maintained at 1.0% halothane, and mounted on a stereotaxic frame (Stoelting Co., Wood Dale, Ill.). […] Throughout the experimental procedure, rectal temperature of mice was monitored and maintained at 37.0±0.5° C.
as §2, with “Brain sections were cut on a cryostat and stained with cresyl violet to estimate lesion volume.” left out
Data were analyzed using SigmaStat 2.0 (Systat), and significance level was set at p<0.05. […]

[3] = 0.1 nmol/kg BW ICV pretreatment 20 min before intrastriatal 50 mM NMDA
[4] = 1 nmol/kg BW ICV pretreatment 20 min before intrastriatal 50 mM NMDA
[5] = 10 nmol/kg BW ICV pretreatment 20 min before intrastriatal 50 mM NMDA

| Structure (SMILES) | brain lesion volume (NMDA-induced) [1, 3] | brain lesion volume (NMDA-induced) [1, 4] | brain lesion volume (NMDA-induced) [1, 5] | toxicity (lesion volume) of the 10 nmol/kg BW dose compared to the 1 mmol/kg BW group ([1]; 10 nmol/kg BW ICV pretreatment, NMDA-induced lesion) | lesion volume to NMDA-induced toxicity in EP1−/− mice [2] |
| --- | --- | --- | --- | --- | --- |
| CCCC[C@H](C)C[C@H](O)/C=C/[C@H]1[C@H](O)CC(=O)[C@@H]1CC(=O)C1CCC(C(=O)O)CC1 (stereo partly drawn) [compound A, 4-({(1R,2R,3R)-3-hydroxy-2-[(1E,3S,5S)-3-hydroxy-5-methylnon-1-enyl]-5-oxocyclopentyl}acetyl)cyclohexanecarboxylic acid, reference compound] | non-significant increases | non-significant increases | significant increase |  |  |
| CC(C)CN(c1ccc(C(F)(F)F)cc1OCc1ccc(/C=C/C(=O)O)cc1)S(=O)(=O)c1ccco1 [compound B, (2E)-3-(4-{[2-[(2-furylsulfonyl)(isobutyl)amino]-5-(trifluoromethyl)phenoxy]methyl}phenyl)acrylic acid] | No significant protection | significantly decreased | significantly decreased | slight, but not significant, toxicity | no significant difference |
